The values below come from patent US20120322153A1, “REPROGRAMMING A CELL BY ACTIVATION OF THE ENDOGENOUS TRANSCRIPTION FACTOR NETWORK” (NUPOTENTIAL, INC., priority 2009, published 2012).

Read-outs that look alike come from different tables or passages of the source.

In one data set the test system is HDAC. Particulars: order of magnitude of affinity for HDAC; cited from earlier work.
In data set [1] the test system is Human adipose tissue derived adult stem cells. Put plainly: ES cell-like colony formation of hADS cells pre-treated with HDAC inhibitor, then OSKM lentivirus. It is filed as cell-based. As for the experimental part:
Human adipose tissue derived adult stem cells were maintained at 37° C. in 95% humidity and 5% CO2 in Dulbecco's modified eagle medium (DMEM, Cell Application) containing 10% fetal bovine serum, 0.5% penicillin and streptomycin. Cells were grown, trypsinized and counted, then diluted in the above standard growth medium to achieve appropriate plating density (1×10^5 cells/well in 6 well plate, Corning) prior to HDAC inhibitor treatment.
Pre-treatment. […] The cell culture medium was changed every other day with new treatment.
Lentivirus infection. Lentivirus that over-expresses mouse Oct-4, Sox2, c-Myc, and Klf4 was purchased from Millipore, (Billerica, Mass.). One day before lentivirus infection, human adipose tissue-derived cells with or without HDAC inhibitor pretreatment were trypsinized and plated at a density of 1×10^5 cells/well in a 6 well plate (Corning) using standard growth medium described above. The following day, the medium was replaced with 1 ml of fresh medium containing 0.6 ug/ml of polybrene (Sigma-Aldrich, St. Louis, Mo.), and thawed lentivirus (MOI 75) was added directly to the wells following the manufacturer's instruction. Cells were maintained at 37° C. in 95% humidity and 5% CO2 incubator overnight. On the next day, lentiviral infection was repeated after cells were washed 3 times with 1×PBS. Lentivirus infected cells were maintained in the standard growth medium for 4˜5 days and trypsinized, and plated on irradiated MEF feeder layers (ATCC, Manassas, Va.) with mTeSR medium (Stem Cell Technology).

The test system is the same in data set [2]. Put plainly: Immunohistochemistry for Sox-2 and Oct4 in ES cell-like colonies from hADS cells. In kind it is cell-based. Particulars: pre-treatment with TSA. As for the experimental part: Cells were fixed with fixative (Ethanol:acetic acid:H2O=7:2:1) for 10 minutes. After rinse 3 times with 10% FBS in 1×PBS for 5 min each and cells were incubated I hrs with primary antibodies for Oct4 (1:200 dilution, Abeam), or Sox2 (1:200 dilution, Abeam) in 10% FBS containing 0.2% saponin (Sigma) and following alexaFluor-conjugated secondary antibody (1:200 dilution, Invitrogen).

The subject of the next data set is Human fibroblasts. The note with it: Retroviral infection, cited from earlier work.
For a further data set, the system named is BJFs (ATCC). Put plainly: HDAC and DNMT1 gene expression in BJFs treated with VPA. In kind it is cell-based. As for the experimental part: FIG. 4C is a bar graph reporting HDAC and DNMT1 gene expression in BJFs (ATCC) treated with […] Valproic acid (VPA) for 7 days.
Expression levels for shRNA-targeted genes and pluripotency transcription factor were quantified by real-time RT-PCR. Briefly, total RNA was prepared from cultures using Trizol Reagent (Life Technology) and the RNeasy Mini RNA isolation kit (Qiagen) with DNase I digestion according to manufacturer's protocol. Total RNA (1 μg) from each sample was subjected to oligo(dT)-primed reverse transcription (Invitrogen) to cDNA. Real-time PCR reactions were performed with PCR master mix on a 7300 real-time PCR system (Applied Biosystems). For each sample, 1 μl of diluted cDNA (1:10) was added as template in the PCR reactions. Expression levels were compared to those in untreated and non-targeting shRNA control cells relative to cyclophillin.

The conditions of data set [3]: used as antiepileptic drug during pregnancy; a few percent of born children; cited from earlier work.
Data set [4] has as its system Mouse embryonic fibroblasts. The note with it: Recombinant protein, cited from earlier work.
Another data set relates to mouse embryos. Particulars: mice, when properly dosed; cited from earlier work.
The mark [5] stands for this setting: 5 days pre-treatment, 9 days after OSKM viral infection.
Setting [6] is: 5 days pre-treatment, 11 days after OSKM viral infection.

For `O=C(CCCCCCCC(=O)NO)NO` [ABHA (azeleic bishydroxamic acid), azeleic bishydroxamic acid], the “Affinity Range” value in the data set on HDAC is recorded as “uM”.

For the compound `CCCC(=O)OCOC(=O)C(C)(C)C` [AN-9, Pivaloyloxymethyl butyrate, Pivaloyloxymethyl butyrate], the “Affinity Range” value with HDAC was “uM”.

As to `CCCC(=O)[O-].[Na+]` [Butyrate/Sodium Butyrate, Sodium Butyrate], the “Affinity Range” value in the data set on HDAC was “mM”.

As to `CC(=O)Nc1ccc(C(=O)Nc2ccccc2N)cc1` [CI-994(N-acetyl dinaline), N-acetyl dinaline], the “Affinity Range” value with HDAC is recorded as “nM”.

Consider `C=CCSSCC=C` [Diallyl disulfide (DADS), Diallyl disulfide], for which the “Affinity Range” value in the data set on HDAC was “uM”.

As to `CCN(CC)Cc1ccc2cc(COC(=O)Nc3ccc(C(=O)NO)cc3)ccc2c1` [ITF2357], the “Affinity Range” value in the data set with HDAC was “nM”.

Regarding `Nc1ccccc1NC(=O)c1ccc(CNc2nccc(-c3cccnc3)n2)cc1` [MGCD0103], in the data set with HDAC, the “Affinity Range” value is “nM”.

Take `Nc1ccccc1NC(=O)c1ccc(CNC(=O)OCc2cccnc2)cc1` [MS-275 (same as MS-27-275)]: the “Affinity Range” value with HDAC is recorded as “nM”.

Turning to `O=C(/C=C/c1ccc(CN(CCO)CCc2c[nH]c3ccccc23)cc1)NO` [NVP-LAQ824], the “Affinity Range” value with HDAC is reported as “nM”.

For `O=C(/C=C/c1cccc(S(=O)(=O)Nc2ccccc2)c1)NO` [PDX-101], in the data set with HDAC, the “Affinity Range” value is listed as “uM”.

For the compound `S=C=NCCCCc1ccccc1` [Phenylbutyl isothiocyanate], the “Affinity Range” value with HDAC is reported as “uM”.

In the case of `O=C(CCCCCCC(=O)Nc1cccnc1)NO` [Pyroxamide], the “Affinity Range” value with HDAC is “uM”.

As to `O=C(CCCCCCC(=O)NO)NO` [SBHA (suberic bishydroxamate), suberic bishydroxamate], in the data set with HDAC, the “Affinity Range” value is “uM”.

As for `CC(=O)N[C@@H](CSC(=S)NCCCC[S+](C)[O-])C(=O)O` (some centres unmarked) [SFN-N-acetylcysteine (SFN-NAC), SFN-N-acetylcysteine], in the data set with HDAC, the “Affinity Range” value is reported as “uM”.

Turning to `C[S+]([O-])CCCCNC(=S)SC[C@H](N)C(=O)O` (some centres unmarked) [SFN-cysteine (SFN-Cys), SFN-cysteine], the “Affinity Range” value in the data set with HDAC is “uM”.

Turning to `CN(C)c1ccc(C(=O)NCc2ccc(/C=C/C(=O)NO)cc2)cc1` [SK-7041], the “Affinity Range” value with HDAC was “nM”.

With `O=C(/C=C/c1ccc(CNC(=O)c2ccc(N3CCCC3)cc2)cc1)NO` [SK-7068], the “Affinity Range” value in the data set on HDAC is “nM”.

In the case of `O=C(CCCCCN1C(=O)c2cccc3cccc(c23)C1=O)NO` [Scriptaid], the “ES cell-like colony formation” value in data set [1] (setting [5]) is listed as “ES cell-like colony formation was observed”; in data set [1] (setting [6]) it was “multiple colonies displaying morphologies consistent with embryonic stem cells or reprogrammed cells were observed”.

For `C[S+]([O-])CCCCN=C=S` (centres unmarked) [Sulforaphane (SFN), Sulforaphane], in the data set with HDAC, the “Affinity Range” value is recorded as “uM”.

In the case of `CC(/C=C/C(=O)NO)=C\[C@@H](C)C(=O)c1ccc(N(C)C)cc1` [TSA, Trichostatin A], the “ES cell-like colony formation” value in data set [1] (setting [5]) was “multiple colonies displaying morphologies consistent with embryonic stem cells or reprogrammed cells were observed”; in data set [1] (setting [6]), “ES cell-like colony formation was observed”. In addition, the “Increase in colony formation vs no pretreatment” value in data set [1] (5 days pre-treatment, then OSKM lentivirus) is on record as “two-fold”. Also, the “Number of ES cell-like colonies” value in data set [1] (First Experiment) was determined as 24; in data set [1] (Second Experiment), 21. Besides, the “Somatic cell reprogramming efficiency (number of formed colonies)” value in data set [1] (pre-treatment prior to four-factor transfection, TSA 1 μM) was “increased”. Moreover, the “Sox-2 and Oct4 expression in ES cell-like colonies” value in data set [2] is “showed Sox-2 and Oct4 expression”. Besides, the “Affinity Range” value in the data set on HDAC is given as “nM”.

For `CCCC(CCC)C(=O)O` [VPA, Valproic acid], the “ES cell-like colony formation” value in data set [1] (setting [5]) and in data set [1] (setting [6]) was “Colonies displaying characteristics of embryonic stem cells or reprogrammed cells were observed” in each case. In addition, the Efficiency with Human fibroblasts (2 iPS factors (OS) + VPA) is recorded as 0.001%; in the data set with Human fibroblasts (3 iPS factors (OSK) + VPA), 1%; in data set [4] (3 iPS factors (OSK) + VPA), 0.002%; in data set [4] (4 iPS factors (OSKM) + VPA), 0.006%. For the same compound, the DNMT1 gene expression entry in the data set on BJFs (ATCC) (BJFs, 500 nM VPA, 7 days, vs control (MC) cells, P<0.005) is on record as “significantly up regulated”. In addition, the HDAC1 gene expression result in the data set on BJFs (ATCC) (BJFs, 500 nM VPA, 7 days, vs control (MC) cells, P<0.01) is on record as “significantly up regulated”. In the data set with BJFs (ATCC) (BJFs, 500 nM VPA, 7 days, vs control (MC) cells, P<0.05), the SIRT4 gene expression result is listed as “significantly up regulated”. For the same compound, the “Compensatory expression of HDACs (HDAC9, HDAC5, HDAC11, SIRT4, SIRT5)” value in the data set on BJFs (ATCC) (treatment of cells with VPA (FIG. 4C)) is on record as “induced”. The “Birth defects (neural tube closure defects and other malformations)” value in data set [3] was “may induce birth defects”. For the same compound, the “Affinity Range” value with HDAC is recorded as “mM”. In the data set with mouse embryos, the Teratogenicity entry was “teratogenic in the majority of mouse embryos”.

As to `O=C(/C=C/c1cccc(C(=O)NO)c1)NO` [m-Carboxycinnamic acid bishydroxamic acid], the “Affinity Range” value in the data set with HDAC was “uM”.

With Oxamflatin, the “Affinity Range” value in the data set with HDAC was “uM”.

As to Suberoylanilide hydroxamic acid, the “Affinity Range” value with HDAC is given as “uM”.
